Values after ≈ are worked out from the molar mass of the structure shown.
Columns and labels:
Format in all cases: cell-based
[1] = system: Plasmodium falciparum TM91C235; experiment: In vitro antimalarial [3H]-hypoxanthine incorporation assay, TM91C235; settings: Plasmodium falciparum; P. falciparum TM91C235 (multiple drug resistant isolate), 72 hours exposure
Summary of the method: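 Multidrug-resistant P. falciparum TM91C235 was run at 0.4% parasitemia and 1% hematocrit in folate/PABA-free RPMI-1640 with ALBUMAX, at 37° C under 5% CO2/5% O2. Compound was tested in duplicate at 25,000, 2,500 and 25 ng/ml, preexposed 48 h, then [3H]-hypoxanthine was added (72 h total). Counts are expressed relative to untreated parasite controls.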

[2] = system: Plasmodium falciparum clone CDC/Sierra Leone I (D-6); experiment: In vitro antimalarial [3H]-hypoxanthine incorporation serial dilution assay, D6; settings: Plasmodium falciparum, D6, 72 h, P. falciparum D6, 72 hours exposure; read-out: IC50 D6
Summary of the method: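 Blood-stage cultures in RPMI-1640 with 6% A+ erythrocytes and human plasma or ALBUMAX, 37° C under 5% CO2/5% O2. Compounds in two-fold dilutions over 11 concentrations; [3H]-hypoxanthine incorporation after 72 h total incubation, CPM normalised to untreated parasite controls; IC50 by non-linear logistic fit.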

[3] = system: Plasmodium falciparum clone CDC/Indochina III (W-2); experiment: In vitro antimalarial [3H]-hypoxanthine incorporation serial dilution assay, W2; settings: Plasmodium falciparum; P. falciparum W2, 72 hours exposure
Text: The in vitro screens for intrinsic antimalarial activity were based on modifications of the procedures described by Desjardins R E, Canfield C J, Haynes J D, Chulay J D. (Quantitative assessment of antimalarial activity in vitro by a semiautomated microdilution technique. Antimicrob Agents Chemother. 1979 December; 16(6):710-8.), Chulay J D, Haynes J D, Diggs C L. (Plasmodium falciparum: Assessment of in vitro growth by [3H]hypoxanthine incorporation. Exp. Parasitol. 1983 55:138-146.), and Milhous W K, Weatherly N F, Bowdre J H, Desjardins R E. (In vitro activities of and mechanisms of resistance to antifol antimalarial drugs. Antimicrob Agents Chemother. 1985 April; 27(4):525-30.). The system was limited to the assessment of the intrinsic activity against the erythrocytic asexual life cycle (blood schizontocides). Two Plasmodium falciparum clones from CDC/Indochina III (W-2) and CDC/Sierra Leone I (D-6) (Oduola A M, Weatherly N F, Bowdre J H, Desjardins R E. Plasmodium falciparum: cloning by single-erythrocyte micromanipulation and heterogeneity in vitro. Exp Parasitol. 1988 66(1):86-95.) were used for all assays. TM91C235, a multiple drug resistant isolate from Thailand, was used for the prescreening assay. W-2 is resistant to chloroquine, quinine, and pyrimethamine and susceptible to mefloquine. D-6 tends to be more resistant to mefloquine and susceptible to chloroquine, quinine, and pyrimethamine. All documents cited in this paragraph are incorporated by reference in their entirety.
All parasites were maintained in continuous long term cultures in RPMI-1640 medium supplemented with 6% washed human A positive (A+)(erythrocytes, 25 mM Hepes, […], and 10% heat inactivated A+human plasma or ALBUMAX® (lipid-rich bovine serum albumin; Invitrogen, Carlsbad, Calif.). All cultures and assays were conducted at 37° C. under an atmosphere of 5% CO2 and 5% O2, with a balance of N2.
After the preincubation, [^3H]-hypoxanthine was added to each well of the MTP. (The assay relies on the incorporation of radiolabeled hypoxanthine by the parasites, which indicates reproduction, and inhibition of isotope incorporation was attributed to activity of known or candidate antimalarial drugs). After 72 hr of total incubation time, the MTP were frozen to lyse the erythrocytes and parasites. The parasite DNA was recovered by harvesting the lysate onto glass-fiber filter plates using a Packard FilterMate™ Cell Harvester. The radioactivity was counted on a Packard TopCount™ microplate scintillation counter. The results were recorded as counts per minutes (CPM) per well at each drug concentration divided by the arithmetic mean of the CPM from the three untreated infection parasite control wells.
The serial dilution assay was conducted using the same assay conditions and stock solution of the compound used for the preliminary screen, described above. Both the D-6 and the W-2 clones were used. The compounds were diluted two-fold over 11 different concentration ranges with a starting concentration that was based on the preliminary screen. For each drug, the concentration response profile was determined and 50% inhibitory concentrations (IC50) were determined by using a non-linear, logistic dose response analysis program. […] For each assay, the IC50 for each clone was determined against the known antimalarials chloroquine and mefloquine. These control values established the compound's relative parasite susceptibility profile compared to known antimalarials. […]
The in vitro potency of the compounds has been compared with that of azithromycin to better gauge compounds suitable for further testing. As described above, parasites were exposed for 72 hours. Data from the in vitro potency tests of azithromycin against the three parasite strains have been averaged, and these numbers have been used for identification of “active” macrolide compounds.

Compound	IC50 [1]	IC50 [2]	IC50 [3]
CC[C@H]1OC(=O)[C@H](C)[C@@H](O[C@H]2C[C@@](C)(OC)[C@@H](O)[C@H](C)O2)[C@H](C)[C@@H](O[C@@H]2O[C@H](C)C[C@H](N(C)C)[C@H]2O)[C@](C)(O)C[C@@H](C)CN(CCCNC(=O)Nc2cc(C)oc2C(F)(F)F)[C@H](C)[C@@H](O)[C@]1(C)O.O=CO [Example 88]	0.33 µg/mL	0.371 µg/mL	0.319 µg/mL
CC[C@H]1OC(=O)[C@H](C)[C@@H](O[C@H]2C[C@@](C)(OC)[C@@H](O)[C@H](C)O2)[C@H](C)[C@@H](O[C@@H]2O[C@H](C)C[C@H](N(C)C)[C@H]2O)[C@](C)(O)C[C@@H](C)CN(CCCNC(=O)Nc2c(C)noc2-c2ccccc2)[C@H](C)[C@@H](O)[C@]1(C)O.O=CO [Example 90]	0.511 µg/mL	0.972 µg/mL	0.762 µg/mL
CC[C@H]1OC(=O)[C@H](C)[C@@H](O[C@H]2C[C@@](C)(OC)[C@@H](O)[C@H](C)O2)[C@H](C)[C@@H](O[C@@H]2O[C@H](C)C[C@H](N(C)C)[C@H]2O)[C@](C)(O)C[C@@H](C)CN(CCCNC(=O)NC2CCN(C(=O)OCc3ccccc3)CC2)[C@H](C)[C@@H](O)[C@]1(C)O.O=CO [Example 91]	0.259 µg/mL	0.698 µg/mL	0.303 µg/mL
CCCCNC(=S)NCCCN1C[C@H](C)C[C@@](C)(O)[C@H](O[C@@H]2O[C@H](C)C[C@H](N(C)C)[C@H]2O)[C@@H](C)[C@H](O[C@H]2C[C@@](C)(OC)[C@@H](O)[C@H](C)O2)[C@@H](C)C(=O)O[C@H](CC)[C@@](C)(O)[C@H](O)[C@H]1C.O=CO [Example 96]	0.364 µg/mL	0.625 µg/mL	0.179 µg/mL
CC[C@H]1OC(=O)[C@H](C)[C@@H](O[C@H]2C[C@@](C)(OC)[C@@H](O)[C@H](C)O2)[C@H](C)[C@@H](O[C@@H]2O[C@H](C)C[C@H](N(C)C)[C@H]2O)[C@](C)(O)C[C@@H](C)CN(CCCNC(=S)Nc2ccc(C)cc2)[C@H](C)[C@@H](O)[C@]1(C)O [Example 97]	0.154 µg/mL (≈ 0.164 µM)	0.311 µg/mL (≈ 0.33 µM)	0.0671 µg/mL (≈ 0.0713 µM)
CC[C@H]1OC(=O)[C@H](C)[C@@H](O[C@H]2C[C@@](C)(OC)[C@@H](O)[C@H](C)O2)[C@H](C)[C@@H](O[C@@H]2O[C@H](C)C[C@H](N(C)C)[C@H]2O)[C@](C)(O)C[C@@H](C)CN(CCCNC(=S)Nc2ccc(C#N)cc2)[C@H](C)[C@@H](O)[C@]1(C)O [Example 98]	0.0745 µg/mL (≈ 0.0782 µM)	0.126 µg/mL (≈ 0.132 µM)	0.0476 µg/mL (≈ 0.05 µM)
CC[C@H]1OC(=O)[C@H](C)[C@@H](O[C@H]2C[C@@](C)(OC)[C@@H](O)[C@H](C)O2)[C@H](C)[C@@H](O[C@@H]2O[C@H](C)C[C@H](N(C)C)[C@H]2O)[C@](C)(O)C[C@@H](C)CN(CCCNC(=S)Nc2ccc(F)cc2)[C@H](C)[C@@H](O)[C@]1(C)O [Example 99]	0.131 µg/mL (≈ 0.139 µM)	0.302 µg/mL (≈ 0.32 µM)	0.0688 µg/mL (≈ 0.0728 µM)
CC[C@H]1OC(=O)[C@H](C)[C@@H](O[C@H]2C[C@@](C)(OC)[C@@H](O)[C@H](C)O2)[C@H](C)[C@@H](O[C@@H]2O[C@H](C)C[C@H](N(C)C)[C@H]2O)[C@](C)(O)C[C@@H](C)CN(CCCNC(=S)NC(=O)c2ccccc2)[C@H](C)[C@@H](O)[C@]1(C)O [Example 100]	0.275 µg/mL (≈ 0.288 µM)	0.284 µg/mL (≈ 0.298 µM)	0.102 µg/mL (≈ 0.107 µM)
CCc1ccccc1NC(=S)NCCCN1C[C@H](C)C[C@@](C)(O)[C@H](O[C@@H]2O[C@H](C)C[C@H](N(C)C)[C@H]2O)[C@@H](C)[C@H](O[C@H]2C[C@@](C)(OC)[C@@H](O)[C@H](C)O2)[C@@H](C)C(=O)O[C@H](CC)[C@@](C)(O)[C@H](O)[C@H]1C [Example 101]	0.24 µg/mL (≈ 0.252 µM)	0.425 µg/mL (≈ 0.445 µM)	0.0919 µg/mL (≈ 0.0962 µM)
CC[C@H]1OC(=O)[C@H](C)[C@@H](O[C@H]2C[C@@](C)(OC)[C@@H](O)[C@H](C)O2)[C@H](C)[C@@H](O[C@@H]2O[C@H](C)C[C@H](N(C)C)[C@H]2O)[C@](C)(O)C[C@@H](C)CN(CCCNC(=S)Nc2ccc(OC)cc2)[C@H](C)[C@@H](O)[C@]1(C)O [Example 102]	0.201 µg/mL (≈ 0.209 µM)	0.46 µg/mL (≈ 0.48 µM)	0.0737 µg/mL (≈ 0.077 µM)
CC[C@H]1OC(=O)[C@H](C)[C@@H](O[C@H]2C[C@@](C)(OC)[C@@H](O)[C@H](C)O2)[C@H](C)[C@@H](O[C@@H]2O[C@H](C)C[C@H](N(C)C)[C@H]2O)[C@](C)(O)C[C@@H](C)CN(CCCNC(=S)Nc2ccc(Cl)cc2)[C@H](C)[C@@H](O)[C@]1(C)O [Example 103]	0.103 µg/mL (≈ 0.108 µM)	0.18 µg/mL (≈ 0.188 µM)	0.0514 µg/mL (≈ 0.0534 µM)
CC[C@H]1OC(=O)[C@H](C)[C@@H](O[C@H]2C[C@@](C)(OC)[C@@H](O)[C@H](C)O2)[C@H](C)[C@@H](O[C@@H]2O[C@H](C)C[C@H](N(C)C)[C@H]2O)[C@](C)(O)C[C@@H](C)CN(CCCNC(=S)Nc2c(F)cccc2F)[C@H](C)[C@@H](O)[C@]1(C)O [Example 104]	0.181 µg/mL (≈ 0.188 µM)	0.49 µg/mL (≈ 0.509 µM)	0.0831 µg/mL (≈ 0.0863 µM)
CC[C@H]1OC(=O)[C@H](C)[C@@H](O[C@H]2C[C@@](C)(OC)[C@@H](O)[C@H](C)O2)[C@H](C)[C@@H](O[C@@H]2O[C@H](C)C[C@H](N(C)C)[C@H]2O)[C@](C)(O)C[C@@H](C)CN(CCCNC(=S)Nc2ccc([N+](=O)[O-])cc2)[C@H](C)[C@@H](O)[C@]1(C)O [Example 105]	0.0237 µg/mL (≈ 0.0244 µM)	0.0184 µg/mL (≈ 0.0189 µM)	0.0201 µg/mL (≈ 0.0207 µM)
CC[C@H]1OC(=O)[C@H](C)[C@@H](O[C@H]2C[C@@](C)(OC)[C@@H](O)[C@H](C)O2)[C@H](C)[C@@H](O[C@@H]2O[C@H](C)C[C@H](N(C)C)[C@H]2O)[C@](C)(O)C[C@@H](C)CN(CCCNC(=S)Nc2ccc(OC(F)F)cc2)[C@H](C)[C@@H](O)[C@]1(C)O [Example 106]	0.12 µg/mL (≈ 0.121 µM)	0.215 µg/mL (≈ 0.216 µM)	0.0626 µg/mL (≈ 0.063 µM)
CC[C@H]1OC(=O)[C@H](C)[C@@H](O[C@H]2C[C@@](C)(OC)[C@@H](O)[C@H](C)O2)[C@H](C)[C@@H](O[C@@H]2O[C@H](C)C[C@H](N(C)C)[C@H]2O)[C@](C)(O)C[C@@H](C)CN(CCCNC(=S)NCCCSC)[C@H](C)[C@@H](O)[C@]1(C)O [Example 109]	0.332 µg/mL (≈ 0.354 µM)	0.843 µg/mL (≈ 0.898 µM)	0.19 µg/mL (≈ 0.202 µM)
CC[C@H]1OC(=O)[C@H](C)[C@@H](O[C@H]2C[C@@](C)(OC)[C@@H](O)[C@H](C)O2)[C@H](C)[C@@H](O[C@@H]2O[C@H](C)C[C@H](N(C)C)[C@H]2O)[C@](C)(O)C[C@@H](C)CN(CCCNC(=S)Nc2ccc(C3CC4CCC3C4)cc2)[C@H](C)[C@@H](O)[C@]1(C)O.O=CO (stereo partly drawn) [Example 110]	0.111 µg/mL	0.247 µg/mL	0.0461 µg/mL
